These results are taken from patent US11773096B2, “Small-molecule PI5P4K alpha/beta inhibitors and methods of treatment using same” (YALE UNIVERSITY, priority 2018, dated 2023).

For one experiment, the system named is C2Cl2 myotubes. As to the kind of experiment: Adenine nucleotides measurement in myotubes (luminescent ATP kit, HPLC, LC-MS/MS). The experiment is classed as cell-based, mouse.
Another experiment addresses RSK2 (Homo sapiens, UniProt P51812). In words: RSK2 kinase assay kit (Promega, ADP-Glo). For orientation: In ADP-Glo the light output rises with the ADP produced.
The subject of experiment [1] is BT474 cells. As to the kind of experiment: Immunoblot analysis in BT474 cells. The experiment is classed as cell-based. As to the method:
(§1) After wash with cold DPBS buffer, cells were lysed in RIPA buffer that contained 50 mM Tris-HCl pH 8.0, 150 mM NaCl, 1 mM EDTA, 1 mM EGTA, 1% NP-40, 0.5% sodium deoxycholate, 0.1% SDS, and protease and phosphatase inhibitor cocktails (Roche). Total protein concentrations were measured using a BCA assay (Thermo scientific). Cell lysate (about 80 μg protein) was resolved by SDS-PAGE and blotted onto PVDF membranes. The membranes were probed overnight at 4° C. with appropriate primary antibodies (Cell Signaling Technology) and incubated with secondary fluorescent antibodies (LI-COR Biosciences) for 1 hr at room temperature before imaging by an Odyssey CLx system.
A general note: A western blot detects proteins with antibodies after separation by electrophoresis.

Experiment [2] has as its system BT474 cells. As to the kind of experiment: Proliferation (CellTiter-Glo). The experiment is classed as cell-based. On the procedure: To measure cell number using the CellTiter-Glo 2.0 assay kit (Promega), cultured cells were equilibrated to room temperature for 30 min, and an equal volume of the CellTiter-Glo reagent was added and mixed for 2 min on an orbital shaker. The plates were incubated for another 10 min before luminescence was recorded using a SpectraMax M5 plate reader. To assess the effect of compound on growth, cells were plated onto white solid-bottom 96-well plates (coming 3917) at 2,000 cells per well in sextuplicate. After 24 hrs, compound (or DMSO control) was added to the wells, and cell number was determined after culturing for 0, 24, 48, and 72 hrs.
For orientation: In ATP-based viability assays light output follows the ATP content of the culture.

A further experiment concerns AMPK. As to the kind of experiment: Western blot of ACC phosphorylation by AMPK in myotubes (FIG. 3F). The experiment is classed as cell-based. As to the method: as §1
The next experiment addresses TNIK (Homo sapiens, UniProt Q9UKE5). In words: HotSpot protein kinase panel. As to conditions: read-out: TNIK activity remaining.
The target in another experiment is p110α/p85α (Homo sapiens, UniProt P42336). In words: In vitro lipid kinase profiling.
A further experiment has as its target TYRO3 (Homo sapiens, UniProt Q06418). In words: HotSpot protein kinase panel. Particulars: read-out: TYRO3 activity remaining.
For the next experiment, the target named is PIKfyve (Homo sapiens, UniProt Q9Y2I7). In words: Lipid kinase assay.
For the next experiment, the system named is L6 myotubes. As to the kind of experiment: 2-deoxyglucose uptake. The experiment is classed as cell-based, rat. Particulars: overnight treatment with 20 μM 7a or 1 mM metformin. As to the method: To measure 2-deoxyglucose (2-DG) uptake, L6 myotubes were treated with compound or DMSO control overnight in the absence of serum in α-MEM. Following treatment, cells were washed twice with KRH buffer (50 mM HEPES pH 7.4, 137 mM NaCl, 4.7 mM KCl, 1.85 mM CaCl2, 1.3 mM MgSO4) containing 0.1% BSA. Residual wash buffer was removed by aspiration. Cells were then incubated for 10 min at 37° C. in a KRH buffer containing 0.1% BSA, 5 mM unlabeled 2-DG and 2 μCi/ml [1,2-^3H(N)]-2-deoxy-D-glucose (PerkinElmer). The uptake was terminated by washing four times with ice-cold KRH buffer containing 0.1% BSA. Nonspecific 2-DG uptake into cells was determined in the presence of 10 μM cytochalasin B, which inhibits glucose transporters, and subtracted. The cells were lysed with 0.05 M NaOH for 2 hrs at 37° C. 10 μl cell lysate was used to quantify protein concentration by BCA assay. The remaining sample was transferred to a scintillation vial containing 3 ml Opti-Fluor liquid scintillation cocktail (PerkinElmer), and radioactivity was determined using a Beckman Coulter LS 6500 scintillation system and normalized against protein concentration.

Another experiment relates to MCF10A p53(−/−) cells. In words: Cell death upon serum withdrawal, trypan blue staining. The experiment is classed as cell-based. On the procedure:
However, the difference is lost when EGF is added to the culture media. […] FIG. 17C: Cell death upon serum withdrawal is measured by trypan blue staining. p53(−/−) Cells are more susceptible to metabolic perturbations caused by glucose starvation.

Another experiment concerns the target NEK11 (Homo sapiens, UniProt Q8NG66). As to the kind of experiment: HotSpot protein kinase panel. As to conditions: read-out: NEK11 activity remaining.

RSK2, sequence (P51812 whole entry): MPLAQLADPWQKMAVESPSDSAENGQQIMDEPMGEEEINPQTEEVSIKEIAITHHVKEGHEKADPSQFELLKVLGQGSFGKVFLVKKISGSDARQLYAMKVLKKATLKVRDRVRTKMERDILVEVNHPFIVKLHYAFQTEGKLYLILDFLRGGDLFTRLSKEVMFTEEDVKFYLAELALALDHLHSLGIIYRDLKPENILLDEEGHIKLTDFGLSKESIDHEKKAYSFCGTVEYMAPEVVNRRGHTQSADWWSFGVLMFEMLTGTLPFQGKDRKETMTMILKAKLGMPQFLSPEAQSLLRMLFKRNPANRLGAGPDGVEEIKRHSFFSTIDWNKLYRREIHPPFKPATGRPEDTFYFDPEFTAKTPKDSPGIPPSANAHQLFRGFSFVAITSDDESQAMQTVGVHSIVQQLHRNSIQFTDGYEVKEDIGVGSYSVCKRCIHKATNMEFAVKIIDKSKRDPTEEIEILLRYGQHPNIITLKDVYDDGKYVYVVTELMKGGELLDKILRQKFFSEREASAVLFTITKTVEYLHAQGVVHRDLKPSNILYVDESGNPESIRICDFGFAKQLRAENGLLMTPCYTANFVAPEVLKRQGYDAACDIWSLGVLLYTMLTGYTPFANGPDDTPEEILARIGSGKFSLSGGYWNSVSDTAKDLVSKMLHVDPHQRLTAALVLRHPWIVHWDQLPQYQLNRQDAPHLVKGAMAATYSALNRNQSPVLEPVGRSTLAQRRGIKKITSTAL
p110α/p85α, sequence (P42336 whole entry, species assumed): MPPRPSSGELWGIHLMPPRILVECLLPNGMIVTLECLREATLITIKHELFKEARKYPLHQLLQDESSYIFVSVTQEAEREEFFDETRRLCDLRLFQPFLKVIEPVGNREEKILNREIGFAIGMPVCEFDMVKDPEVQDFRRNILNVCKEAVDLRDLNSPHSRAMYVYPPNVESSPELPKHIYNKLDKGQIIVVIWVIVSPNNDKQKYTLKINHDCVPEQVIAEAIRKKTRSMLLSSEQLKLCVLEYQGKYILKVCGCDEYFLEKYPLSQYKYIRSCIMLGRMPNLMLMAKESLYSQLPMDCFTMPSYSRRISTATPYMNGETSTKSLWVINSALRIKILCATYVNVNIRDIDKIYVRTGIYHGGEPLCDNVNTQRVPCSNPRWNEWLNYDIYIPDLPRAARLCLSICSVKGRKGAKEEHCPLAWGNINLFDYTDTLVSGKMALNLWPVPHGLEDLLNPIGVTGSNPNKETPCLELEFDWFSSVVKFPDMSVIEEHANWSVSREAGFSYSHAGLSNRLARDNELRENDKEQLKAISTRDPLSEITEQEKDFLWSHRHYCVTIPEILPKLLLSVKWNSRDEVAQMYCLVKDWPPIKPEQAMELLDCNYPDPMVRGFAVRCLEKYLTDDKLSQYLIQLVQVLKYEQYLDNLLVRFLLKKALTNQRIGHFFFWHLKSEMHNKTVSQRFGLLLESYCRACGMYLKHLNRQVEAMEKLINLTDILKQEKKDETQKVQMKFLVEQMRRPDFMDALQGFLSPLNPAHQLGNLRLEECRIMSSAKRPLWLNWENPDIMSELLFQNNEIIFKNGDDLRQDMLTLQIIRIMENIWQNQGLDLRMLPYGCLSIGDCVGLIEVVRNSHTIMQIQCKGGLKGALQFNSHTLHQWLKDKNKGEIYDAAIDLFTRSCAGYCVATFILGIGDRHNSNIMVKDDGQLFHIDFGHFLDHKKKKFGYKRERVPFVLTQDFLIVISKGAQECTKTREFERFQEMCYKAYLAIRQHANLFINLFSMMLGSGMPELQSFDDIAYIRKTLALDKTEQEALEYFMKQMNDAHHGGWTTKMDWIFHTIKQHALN
p110α/p85α, sequence (P27986 whole entry partner, species assumed): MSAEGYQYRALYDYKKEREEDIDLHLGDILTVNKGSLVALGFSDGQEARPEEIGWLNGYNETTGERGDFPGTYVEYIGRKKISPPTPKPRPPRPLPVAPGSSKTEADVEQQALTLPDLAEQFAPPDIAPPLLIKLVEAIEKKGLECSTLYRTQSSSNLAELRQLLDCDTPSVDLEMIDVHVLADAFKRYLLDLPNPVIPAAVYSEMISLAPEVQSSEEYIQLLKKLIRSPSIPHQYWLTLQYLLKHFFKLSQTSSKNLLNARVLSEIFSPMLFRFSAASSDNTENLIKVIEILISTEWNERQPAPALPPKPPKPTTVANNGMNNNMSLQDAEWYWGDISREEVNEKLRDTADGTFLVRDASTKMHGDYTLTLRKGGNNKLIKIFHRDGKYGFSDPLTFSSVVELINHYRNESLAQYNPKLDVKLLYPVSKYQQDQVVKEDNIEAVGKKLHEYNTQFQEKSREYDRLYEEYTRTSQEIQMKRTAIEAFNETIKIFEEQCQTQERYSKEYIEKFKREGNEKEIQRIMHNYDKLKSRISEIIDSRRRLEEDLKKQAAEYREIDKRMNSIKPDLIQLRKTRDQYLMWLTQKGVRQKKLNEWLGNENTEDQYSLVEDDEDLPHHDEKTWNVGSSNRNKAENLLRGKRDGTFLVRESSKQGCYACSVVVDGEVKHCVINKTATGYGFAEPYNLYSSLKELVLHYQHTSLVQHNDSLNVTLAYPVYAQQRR
TYRO3, sequence (Q06418 41-890): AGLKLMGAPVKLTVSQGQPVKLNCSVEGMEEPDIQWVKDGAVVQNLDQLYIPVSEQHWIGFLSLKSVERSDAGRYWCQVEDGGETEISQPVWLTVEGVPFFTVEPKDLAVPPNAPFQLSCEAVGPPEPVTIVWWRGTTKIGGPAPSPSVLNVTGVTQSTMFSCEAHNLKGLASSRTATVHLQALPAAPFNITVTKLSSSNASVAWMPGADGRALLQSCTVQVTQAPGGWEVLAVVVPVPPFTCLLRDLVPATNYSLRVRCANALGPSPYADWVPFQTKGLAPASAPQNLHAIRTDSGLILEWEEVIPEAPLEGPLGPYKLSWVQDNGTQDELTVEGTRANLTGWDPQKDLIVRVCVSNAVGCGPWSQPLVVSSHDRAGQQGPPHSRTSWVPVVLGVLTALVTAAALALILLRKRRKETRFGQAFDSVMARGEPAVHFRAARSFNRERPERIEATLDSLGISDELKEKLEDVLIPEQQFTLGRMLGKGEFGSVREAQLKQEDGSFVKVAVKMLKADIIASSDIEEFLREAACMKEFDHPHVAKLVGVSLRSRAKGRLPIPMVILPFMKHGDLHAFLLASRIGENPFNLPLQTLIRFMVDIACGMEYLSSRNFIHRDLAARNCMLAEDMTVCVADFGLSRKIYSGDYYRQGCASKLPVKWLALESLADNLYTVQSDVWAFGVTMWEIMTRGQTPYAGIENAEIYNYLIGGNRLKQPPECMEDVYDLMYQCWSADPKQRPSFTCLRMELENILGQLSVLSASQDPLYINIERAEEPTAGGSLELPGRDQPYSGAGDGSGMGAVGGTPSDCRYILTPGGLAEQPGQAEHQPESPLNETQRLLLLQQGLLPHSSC
TNIK, sequence (Q9UKE5 whole entry): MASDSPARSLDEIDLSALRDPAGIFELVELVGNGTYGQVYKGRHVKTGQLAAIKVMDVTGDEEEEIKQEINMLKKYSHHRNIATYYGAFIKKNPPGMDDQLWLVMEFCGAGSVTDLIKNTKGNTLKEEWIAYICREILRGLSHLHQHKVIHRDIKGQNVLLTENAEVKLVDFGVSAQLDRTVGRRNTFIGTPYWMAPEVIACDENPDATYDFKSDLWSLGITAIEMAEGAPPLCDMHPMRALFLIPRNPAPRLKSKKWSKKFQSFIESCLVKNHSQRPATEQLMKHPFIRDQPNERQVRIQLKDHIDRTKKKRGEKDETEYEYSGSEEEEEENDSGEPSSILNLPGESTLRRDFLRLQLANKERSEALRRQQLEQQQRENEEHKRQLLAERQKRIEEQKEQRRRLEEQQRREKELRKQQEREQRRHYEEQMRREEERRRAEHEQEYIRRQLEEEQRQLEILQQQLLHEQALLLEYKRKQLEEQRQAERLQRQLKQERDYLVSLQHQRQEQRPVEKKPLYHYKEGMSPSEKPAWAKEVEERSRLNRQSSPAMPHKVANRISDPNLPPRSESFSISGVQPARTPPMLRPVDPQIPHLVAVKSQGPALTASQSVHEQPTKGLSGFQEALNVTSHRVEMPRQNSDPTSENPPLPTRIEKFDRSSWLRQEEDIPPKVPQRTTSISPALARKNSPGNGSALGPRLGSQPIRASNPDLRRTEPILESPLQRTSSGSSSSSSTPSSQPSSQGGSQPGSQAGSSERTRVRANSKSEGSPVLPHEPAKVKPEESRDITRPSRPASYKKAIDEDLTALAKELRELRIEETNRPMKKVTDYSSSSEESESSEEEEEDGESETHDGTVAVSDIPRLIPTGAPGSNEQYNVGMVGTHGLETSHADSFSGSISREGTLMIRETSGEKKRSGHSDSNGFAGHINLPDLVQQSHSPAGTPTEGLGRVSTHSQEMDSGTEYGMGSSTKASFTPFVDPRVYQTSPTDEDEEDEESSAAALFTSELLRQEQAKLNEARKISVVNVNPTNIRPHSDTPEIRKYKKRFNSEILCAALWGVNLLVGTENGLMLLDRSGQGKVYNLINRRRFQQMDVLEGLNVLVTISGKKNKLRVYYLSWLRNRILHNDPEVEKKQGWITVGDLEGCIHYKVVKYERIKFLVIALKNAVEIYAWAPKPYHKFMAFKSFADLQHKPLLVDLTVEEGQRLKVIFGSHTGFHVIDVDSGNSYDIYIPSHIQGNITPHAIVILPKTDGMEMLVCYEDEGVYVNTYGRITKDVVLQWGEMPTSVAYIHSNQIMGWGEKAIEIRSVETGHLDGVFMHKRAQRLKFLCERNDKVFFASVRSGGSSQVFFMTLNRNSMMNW
Method for C2Cl2 myotubes: C2Cl2 cells were plated and differentiated on the same type of plates. After treatment with compound overnight, total cellular ATP levels were measured by a luminescent ATP detection assay kit (Abcam) following manufacturer's protocol and normalized against the total protein concentration.
To measure nucleotide concentration using HPLC or LC-MS/MS, cells were rinsed three times with DPBS buffer at room temperature and lysed in ice-cold 0.4M perchloric acid (500 μl acid per 10^6 cells). The culture dishes were sealed and transferred to a −80° C. freezer. Cell lysates were then thawed on ice, scraped off, and centrifuged at 14,000 rpm at 4° C. for 10 min. The pellet was solubilized in 0.2M NaOH and set aside for measurement of protein concentration. The supernatant was transferred to clean tubes and neutralized with 3M KHCO3. The neutralized sample was kept on ice for 10 min and then transferred to a −80° C. freezer. After 2 hrs, thawed sample was centrifuged again to remove the precipitated perchlorate, filtered, adjusted according to protein concentration, aliquoted and stored at −80° C. The sample was thawed on ice just before the HPLC or LC-MS/MS experiment. […] The nucleotides were separated using 20 mM ammonium acetate in water (solvent A) and 5% acetonitrile in water buffered with 20 mM ammonium acetate (solvent B), which were both adjusted with ammonium hydroxide to pH 9.0. The flow rate was 0.7 mL/min, and the column temperature was maintained at 35° C. The gradient elution program was: 0-2 min, 0-5% B; 2-12 min, 5-10% B; 12-22 min, 10-20% B; 22-25 min, 20-100% B; 25-30 min, 100% B, and then back to 100% A for 1 min, which was maintained for another 9 min to recondition the column. Mass spectrometric ESI ionization was performed in the negative ion mode and the source parameters were set as follows: gas temperature, 200° C.; gas flow, 12 L/min; nebulizer pressure, 35 psi; sheath gas temperature, 200° C.; sheath gas flow, 12 L/min; capillary voltage, −4,000V; fragmentor voltage, 380V.
From the text for RSK2: The assay kits for Plk1 and RSK2 were obtained from Promega (Madison, Wis.), which use ADP-Glo™ for activity detection.
Method for TNIK: In both titrations, the ATP concentration was fixed at 50 μM. The assay kits for Plk1 and RSK2 were obtained from Promega (Madison, Wis.), which use ADP-Glo™ for activity detection.

Usually Ki stands for the equilibrium dissociation constant of an inhibitor or competing ligand from its target. Lower therefore signals tighter binding. By remaining activity is commonly meant the activity still measured, relative to the control. Turning to `CN1C(=O)[C@@H](CC2CCCC2)N(C2CCCC2)c2nc(Nc3cc(Cl)c(O)c(Cl)c3)ncc21` [7a, (R)-8-cyclopentyl-7-(cyclopentylmethyl)-2-((3,5-dichloro-4-hydroxyphenyl)amino)-5-methyl-7,8-dihydropteridin-6(5H)-one], the ADP concentration result with C2Cl2 myotubes is “unchanged”. In the experiment with C2Cl2 myotubes (bioluminescence assay or HPLC, compound overnight), the “reduction of intracellular ATP level” value was found to be 15%. For the same compound, the “increase in AMP concentration” value with C2Cl2 myotubes (triple quadrupole LC-MS/MS) came out at 30%. The Ki is about 1000 nM at RSK2 and about 200 nM on PIKfyve. For the same compound, the “calculated RSK2 activity, % of DMSO control” value on RSK2 (calculated for 0.5 μM 7a and 20 μM ATP) is reported as 79%. Also, the p38 phosphorylation result in the experiment with BT474 cells [1] (20 μM) is reported as “increased”. The “levels of cell-cycle inhibitors p21 and p27” value in the experiment on BT474 cells [1] (BT474) was “increased levels”. Moreover, the “mTORC1 activity (S6K phosphorylation)” value in the experiment on BT474 cells [1] (BT474) is recorded as “less S6K phosphorylation”. The “AMPK activation (phosphorylation of ACC and raptor)” value in the experiment on BT474 cells [1] (BT474, 0, 10 and 20 μM) is on record as “activated”. In addition, the AMPK activation result in the experiment on BT474 cells [1] (BT474, absence of serum) is listed as “caused AMPK activation”; in the experiment with BT474 cells [1] (BT474, with serum, 32° C.), “no longer caused AMPK activation”; with BT474 cells [1] (BT474, with serum, 37° C.), “activated”. For the same compound, the “sensitivity of BT474 growth to inhibition at 32° C.” value in the experiment on BT474 cells [2] (32° C. (restores p53 function)) was “less sensitive”. Moreover, in the experiment with BT474 cells [2] (dose-dependent, 37° C.), the “growth of BT474 cells” value is given as “inhibited”. Also, in the experiment with AMPK, the “ACC phosphorylation / AMPK activation” value was “activated”. Also, the values for the remaining activity at 0.5 µM on TNIK, on TYRO3 and at NEK11 were 73%, 72% and 66%, respectively. Besides, the “inhibition of p110α/p85α” value on p110α/p85α is recorded as “not inhibited”. The “rate of glucose uptake (labeled 2-deoxyglucose)” value in the experiment with L6 myotubes is reported as “doubled”. Moreover, in the experiment with MCF10A p53(−/−) cells, the cell death result was “selectively kills p53(−/−) cells”.
